Data published in patent US11945822B2, “Pyrazolo-triazine and/or pyrazolo-pxrimidine derivatives as selective inhibitor of cyclin dependent kinase” (QURIENT CO., LTD., priority 2018, dated 2024).

Columns and labels:
CDK5/p25 = molecular target: T1, CDK5/p25 (Homo sapiens, UniProt Q00535); experiment: Enzymatic assay for CDK5 (FRET based LANCE Ultra kinase assay); type: biochemical; conditions: read-out: CDK5 enzymatic activity (IC50 range)
T1 construct: purchased Invitrogen PR8543B
Outline: (§1)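 TR-FRET (LANCE Ultra) kinase assay at ATP Km, ULight-MBP peptide substrate (68 nM), 8-dose 4-fold compound series in DMSO. Enzymes: […]; 60 min at 23° C., stopped with EDTA plus Eu-anti-phospho-MBP antibody, read 665/615 nm after 60 min.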

MM.1S = experiment: Cellular MM.1S viability assay (CellTiter-Glo, 72 hours); type: cell-based; conditions: Homo sapiens, MM1.S
Description: Human T-cell acute lymphoblastic leukemia cell line, MOLT-4 (ATCC, Cat #CRL-1582), Human multiple myeloma cell line, RPMI-8226 (Invitrogen, Cat #22400-089) and MM.1S (ATCC, Cat #CRL-2974), NSCLC (Non-small cell lung cancer) cell line H460 (ATCC, Cat #HTB-177), Human colon colorectal carcinoma cell line HCT116 (ATCC, Cat #CCL-247), Human acute monocytic leukemia cell line MV4-11 (ATCC, Cat #CRL-9591), OVCAR-3 (ATCC, Cat #HTB-161) and A2780 (ECACC, Cat #93112519) were obtained from ATCC. Cells were grown in RPMI-1640 media (Invitrogen, Cat #22400-089) supplemented with 10% FBS (Invitrogen, Cat #10099141) and 1% penicillin/streptomycin (Invitrogen, Cat #15070063) and cultured at 37° C., 5% CO2 in a humidified chamber. All cell lines were routinely tested for mycoplasma.
The effect of the CDK7 inhibitor to inhibit the growth of target cancer cells was evaluated through the 72 hours time period of viability assay. Briefly, the candidate cell line ware plated in 96 well plate at the following density of cells respectively. 1×10^4 cells/well for MOLT-4, RPMI-8226, MV4-11 and MM.1S, 5×10^3 for H460, HCT116 and OVCAR-3 and IX 10^3 for A2780. After 24 hours, the cells were treated with various concentrations of the compound (ranging from 0.0015 uM to 10 uM). DMSO solvent without compound served as a control and final DMSO concentration less than 0.1%. After 72 hours of incubation at 37° C., 5% CO2 incubator, cells were analyzed for the viability using the CellTiter-Glo Luminescent Cell Viability Assay (Promega, Cat #G7570). All viability assays were performed in duplicate and Luminescence was read using an Envision (Perkin Elmer, USA). Data was analyzed using XLfit software.

MV4-11 = experiment: Cellular MV4-11 viability assay (CellTiter-Glo, 72 hours); type: cell-based; conditions: Homo sapiens
Outline: (§2)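 Luminescent ATP read-out (CellTiter-Glo) after 72 h compound exposure at 37 °C/5% CO2; duplicate wells; vehicle control DMSO <0.1% final; seeding density set per cell line.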

CDK2/Cyclin A = molecular target: T2, CDK2/Cyclin A (Homo sapiens, UniProt P24941); experiment: Enzymatic assay for CDK2 (FRET based LANCE Ultra kinase assay); type: biochemical; conditions: read-out: CDK2 enzymatic activity (IC50 range)
T2 construct: purchased Invitrogen PV6290
Outline: as §1

H460 = experiment: Cellular H460 viability assay (CellTiter-Glo, 72 hours); type: cell-based; conditions: Homo sapiens, NCI-H460
Outline: as §2

CDK1/Cyclin B = molecular target: T3, CDK1/Cyclin B (Homo sapiens, UniProt P06493); experiment: Enzymatic assay for CDK1 (FRET based LANCE Ultra kinase assay); type: biochemical; conditions: read-out: CDK1 enzymatic activity (IC50 range)
T3 construct: purchased Invitrogen PR4768C
T3 sequence (P06493 whole entry): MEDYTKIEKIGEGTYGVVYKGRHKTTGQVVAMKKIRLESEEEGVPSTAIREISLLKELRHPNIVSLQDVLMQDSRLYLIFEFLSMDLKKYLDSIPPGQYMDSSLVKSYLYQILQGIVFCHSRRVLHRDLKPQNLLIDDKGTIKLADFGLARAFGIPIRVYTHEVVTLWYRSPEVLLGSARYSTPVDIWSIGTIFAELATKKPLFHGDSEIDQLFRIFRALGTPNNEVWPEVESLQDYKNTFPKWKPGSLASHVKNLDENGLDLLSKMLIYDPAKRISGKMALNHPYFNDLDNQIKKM
T3 sequence (P14635 whole entry partner): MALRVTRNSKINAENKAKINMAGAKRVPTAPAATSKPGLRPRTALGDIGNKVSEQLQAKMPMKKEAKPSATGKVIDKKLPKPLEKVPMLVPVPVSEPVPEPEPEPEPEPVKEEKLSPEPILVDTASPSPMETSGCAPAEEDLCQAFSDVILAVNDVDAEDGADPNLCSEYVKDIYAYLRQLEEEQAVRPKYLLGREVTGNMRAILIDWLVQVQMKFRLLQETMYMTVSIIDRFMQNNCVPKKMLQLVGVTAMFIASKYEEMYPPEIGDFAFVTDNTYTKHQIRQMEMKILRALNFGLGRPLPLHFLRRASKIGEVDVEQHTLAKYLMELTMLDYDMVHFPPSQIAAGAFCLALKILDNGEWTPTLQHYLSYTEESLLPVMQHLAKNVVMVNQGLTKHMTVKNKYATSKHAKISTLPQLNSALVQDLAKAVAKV
Outline: as §1

CDK7/Cyclin H/MNAT1 = molecular target: T4, CDK7/Cyclin H/MNAT1 (Homo sapiens, UniProt P50613); experiment: Enzymatic assay for CDK7 (FRET based LANCE Ultra kinase assay); type: biochemical; conditions: for IC50: read-out: CDK7 enzymatic activity (IC50 range)
T4 construct: purchased Invitrogen PR6749B
T4 sequence (P50613 whole entry): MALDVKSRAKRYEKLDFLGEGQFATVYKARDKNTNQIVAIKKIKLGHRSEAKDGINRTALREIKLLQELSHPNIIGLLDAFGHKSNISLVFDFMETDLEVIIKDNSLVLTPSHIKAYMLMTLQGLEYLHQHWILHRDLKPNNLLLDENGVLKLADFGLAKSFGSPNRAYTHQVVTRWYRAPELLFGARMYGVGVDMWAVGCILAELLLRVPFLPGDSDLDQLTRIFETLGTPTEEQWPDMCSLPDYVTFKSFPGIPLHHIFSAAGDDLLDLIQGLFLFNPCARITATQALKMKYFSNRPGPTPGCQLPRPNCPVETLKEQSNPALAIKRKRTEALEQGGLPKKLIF
T4 sequence (P51946 whole entry partner): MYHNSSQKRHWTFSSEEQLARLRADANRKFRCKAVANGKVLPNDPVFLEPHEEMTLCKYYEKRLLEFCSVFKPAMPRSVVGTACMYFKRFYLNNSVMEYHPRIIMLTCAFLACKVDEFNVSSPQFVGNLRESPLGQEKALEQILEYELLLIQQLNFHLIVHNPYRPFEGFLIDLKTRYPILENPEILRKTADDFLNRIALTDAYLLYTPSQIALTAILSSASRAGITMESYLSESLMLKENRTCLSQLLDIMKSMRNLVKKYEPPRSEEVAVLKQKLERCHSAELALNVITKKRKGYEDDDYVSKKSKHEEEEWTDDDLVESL
T4 sequence (P51948 whole entry partner): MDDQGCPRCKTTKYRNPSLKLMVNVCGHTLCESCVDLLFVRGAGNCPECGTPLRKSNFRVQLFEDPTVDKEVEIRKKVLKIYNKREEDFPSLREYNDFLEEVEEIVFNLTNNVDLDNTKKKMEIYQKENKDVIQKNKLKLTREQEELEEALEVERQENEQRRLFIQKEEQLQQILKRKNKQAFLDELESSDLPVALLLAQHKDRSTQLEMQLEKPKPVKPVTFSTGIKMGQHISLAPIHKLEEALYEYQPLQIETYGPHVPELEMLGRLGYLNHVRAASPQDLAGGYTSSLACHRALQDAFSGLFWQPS
Outline: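 Inhibition was measured at Km ATP by time-resolved FRET between a Eu anti-phospho antibody and a phosphorylated ULight peptide. The enzyme was the purified CDK7/cyclin complex, and data were curve-fitted.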

HCT116 = experiment: Cellular HCT116 viability assay (CellTiter-Glo, 72 hours); type: cell-based; conditions: Homo sapiens, HCT-116
Outline: as §2

T1 sequence (Q00535 whole entry): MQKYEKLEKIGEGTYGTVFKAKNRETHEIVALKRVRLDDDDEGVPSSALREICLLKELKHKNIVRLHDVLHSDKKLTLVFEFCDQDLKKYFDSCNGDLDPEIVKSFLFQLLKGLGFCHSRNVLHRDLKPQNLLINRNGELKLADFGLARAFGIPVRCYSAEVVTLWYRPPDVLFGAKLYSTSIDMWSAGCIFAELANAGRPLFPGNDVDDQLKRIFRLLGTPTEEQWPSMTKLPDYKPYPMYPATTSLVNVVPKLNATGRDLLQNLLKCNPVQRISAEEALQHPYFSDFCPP
T1 sequence (Q15078 99-307 partner limits assumed): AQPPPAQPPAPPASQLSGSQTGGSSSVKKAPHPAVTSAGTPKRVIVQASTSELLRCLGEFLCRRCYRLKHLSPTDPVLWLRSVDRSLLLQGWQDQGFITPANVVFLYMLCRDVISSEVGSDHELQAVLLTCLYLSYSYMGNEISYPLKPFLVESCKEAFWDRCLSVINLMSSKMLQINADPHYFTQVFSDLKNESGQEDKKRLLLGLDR

Row | SMILES | IC50 (CDK5/p25) | IC50 (MM.1S) | IC50 (MV4-11) | IC50 (CDK2/Cyclin A) | IC50 (H460) | IC50 (CDK1/Cyclin B) | CDK1/CDK7: Selectivity of CDK7 inhibition over CDK1 inhibition (CDK7/Cyclin H/MNAT1) | CDK2/CDK7: Selectivity of CDK7 inhibition over CDK2 inhibition (CDK7/Cyclin H/MNAT1) | CDK5/CDK7: Selectivity of CDK7 inhibition over CDK5 inhibition (CDK7/Cyclin H/MNAT1) | IC50 (CDK7/Cyclin H/MNAT1) | IC50 (HCT116)
1 | Cc1[nH]c(-c2ccccc2CNc2nc(N3CCC(N)CC3)nc3c(C(C)C)cnn23)nc1C(=O)NC1CCOCC1 [Compound 178] | < 100 nM | ≤ 1000 nM | < 1000 nM | 100 to 1000 nM | < 1000 nM | > 1000 nM | A (A=greater than 200 fold) | B (B=less than 200 fold, but greater than 20 fold) | C (C=less than 20 fold) | < 100 nM | –
2 | CC(C)c1cnn2c(NCc3ccccc3-n3cc(C(=O)N4CCN(C)CC4)cn3)nc(N3CCC(N)CC3)nc12 [Compound 154] | < 100 nM | ≤ 1000 nM | < 1000 nM | 100 to 1000 nM | < 1000 nM | > 1000 nM | A (A=greater than 200 fold) | A (A=greater than 200 fold) | B (B=less than 200 fold, but greater than 20 fold) | < 100 nM | < 1000 nM
3 | CC(C)c1cnn2c(NCc3ccccc3-n3ccc(CO)n3)nc(N3CCC(N)CC3)nc12 [Compound 181] | 100 to 1000 nM | ≤ 1000 nM | < 1000 nM | 100 to 1000 nM | < 1000 nM | 100 to 1000 nM | B (B=less than 200 fold, but greater than 20 fold) | B (B=less than 200 fold, but greater than 20 fold) | B (B=less than 200 fold, but greater than 20 fold) | < 100 nM | < 1000 nM
4 | CC(C)c1cnn2c(NCc3ccccc3-n3cc4cc(C(=O)NC5COC5)ccc4n3)nc(N3CCC(N)CC3)nc12 [Compound 176] | 100 to 1000 nM | ≤ 1000 nM | < 1000 nM | 100 to 1000 nM | < 1000 nM | 100 to 1000 nM | B (B=less than 200 fold, but greater than 20 fold) | B (B=less than 200 fold, but greater than 20 fold) | B (B=less than 200 fold, but greater than 20 fold) | < 100 nM | –
5 | CC(C)c1cnn2c(N[C@@H](C)c3ccccc3-n3cc(N4CCNCC4)cn3)nc(N3CCC(N)CC3)nc12 [Compound 192] | > 1000 nM | 1000 to 10000 nM | < 1000 nM | > 1000 nM | 1000 to 10000 nM | > 1000 nM | A (A=greater than 200 fold) | A (A=greater than 200 fold) | A (A=greater than 200 fold) | < 100 nM | < 1000 nM
6 | CC(C)(C)c1cnn2c(NCc3c(F)cccc3-n3cccn3)nc(N3CCC(N)CC3)nc12 [Compound 13] | 100 to 1000 nM | ≤ 1000 nM | – | > 1000 nM | < 1000 nM | > 1000 nM | A (A=greater than 200 fold) | B (B=less than 200 fold, but greater than 20 fold) | B (B=less than 200 fold, but greater than 20 fold) | < 100 nM | –
7 | CNC(=O)c1ccc2nc(-c3ccccc3CNc3nc(N4CCC(N)CC4)nc4c(C(C)C)cnn34)cnc2c1 [Compound 153] | 100 to 1000 nM | ≤ 1000 nM | < 1000 nM | > 1000 nM | < 1000 nM | > 1000 nM | A (A=greater than 200 fold) | A (A=greater than 200 fold) | B (B=less than 200 fold, but greater than 20 fold) | < 100 nM | < 1000 nM
8 | CC(C)c1cnn2c(NCc3ccccc3-n3cc(N4CCNCC4)cn3)nc(N3CCC(N)CC3)nc12 [Compound 180] | < 100 nM | ≤ 1000 nM | < 1000 nM | 100 to 1000 nM | < 1000 nM | 100 to 1000 nM | B (B=less than 200 fold, but greater than 20 fold) | B (B=less than 200 fold, but greater than 20 fold) | C (C=less than 20 fold) | < 100 nM | < 1000 nM
9 | CNC(=O)c1ccn(-c2cccc(Cl)c2CNc2nc(N3CCC(N)CC3)nc3c(C(C)C)cnn23)n1 [Compound 197] | 100 to 1000 nM | ≤ 1000 nM | < 1000 nM | > 1000 nM | < 1000 nM | > 1000 nM | A (A=greater than 200 fold) | A (A=greater than 200 fold) | B (B=less than 200 fold, but greater than 20 fold) | < 100 nM | < 1000 nM
10 | CC(C)c1cnn2c(N[C@H](C)c3ccccc3-c3cc4ccccc4[nH]3)nc(N3CCC(N)CC3)nc12 [Compound 188] | > 1000 nM | 1000 to 10000 nM | 1000 to 10000 nM | > 1000 nM | 1000 to 10000 nM | > 1000 nM | B (B=less than 200 fold, but greater than 20 fold) | C (C=less than 20 fold) | C (C=less than 20 fold) | 100 to 1000 nM | –
11 | CC(C)c1cnn2c(N[C@@H](C)c3ccccc3-c3cc4ccccc4[nH]3)nc(N3CCC(N)CC3)nc12 [Compound 187] | > 1000 nM | 1000 to 10000 nM | 1000 to 10000 nM | > 1000 nM | 1000 to 10000 nM | > 1000 nM | A (A=greater than 200 fold) | A (A=greater than 200 fold) | A (A=greater than 200 fold) | < 100 nM | –
12 | COc1cccc(-c2cc3ccccc3[nH]2)c1CNc1nc(N2CCC(N)CC2)nc2c(C(C)C)cnn12 [Compound 186] | > 1000 nM | 1000 to 10000 nM | 1000 to 10000 nM | > 1000 nM | 1000 to 10000 nM | > 1000 nM | A (A=greater than 200 fold) | A (A=greater than 200 fold) | B (B=less than 200 fold, but greater than 20 fold) | < 100 nM | –
13 | CC(C)c1cnn2c(NCc3c(O)cccc3-c3cc4ccccc4[nH]3)nc(N3CCC(N)CC3)nc12 [Compound 185] | > 1000 nM | 1000 to 10000 nM | 1000 to 10000 nM | > 1000 nM | 1000 to 10000 nM | > 1000 nM | A (A=greater than 200 fold) | A (A=greater than 200 fold) | B (B=less than 200 fold, but greater than 20 fold) | < 100 nM | –
14 | CNC(=O)c1cccc(F)c1CNc1nc(N2CCC(N)CC2)nc2c(C(C)(C)C)cnn12 [Compound 20] | > 1000 nM | 1000 to 10000 nM | < 1000 nM | > 1000 nM | < 1000 nM | > 1000 nM | A (A=greater than 200 fold) | A (A=greater than 200 fold) | A (A=greater than 200 fold) | < 100 nM | –
